Assay results as given in patent publication US7888464B2, “Hepatitis C virus inhibitors” (Bristol-Myers Squibb Company, priority 2006, dated 2011).

Legend:
[1] = tested on: HCV replicon (strain 1b) in HUH-7 cells; test: HCV replicon FRET assay; assay type: cell-based; settings: Hepatitis C virus, Huh-7, read-out: EC50 in the replicon FRET assay
From the text: An HCV replicon whole cell system was established as described by Lohmann V, Korner F, Koch J, Herian U, Theilmann L, Bartenschlager R., Science 285(5424): 110-3 (1999). This system enabled us to evaluate the effects of our HCV Protease compounds on HCV RNA replication. Briefly, using the HCV strain 1b sequence described in the Lohmann paper (Assession number: AJ238799), an HCV cDNA was synthesized by Operon Technologies, Inc. (Alameda, Calif.), and the full-length replicon was then assembled in plasmid pGem9zf(+) (Promega, Madison, Wis.) using standard molecular biology techniques. The replicon consists of (i) the HCV 5′ UTR fused to the first 12 amino acids of the capsid protein, (ii) the neomycin phosphotransferase gene (neo), (iii) the IRES from encephalomyocarditis virus (EMCV), and (iv) HCV NS3 to NS5B genes and the HCV 3′ UTR. Plasmid DNAs were linearized with ScaI and RNA transcripts were synthesized in vitro using the T7 MegaScript transcription kit (Ambion, Austin, Tex.) according to manufacturer's directions. In vitro transcripts of the cDNA were transfected into the human hepatoma cell line, HUH-7. […] Resulting cell lines were characterized for positive and negative strand RNA production and protein production over time.
The HCV replicon FRET assay was developed to monitor the inhibitory effects of compounds described in the disclosure on HCV viral replication. HUH-7 cells, constitutively expressing the HCV replicon, were grown in Dulbecco's Modified Eagle Media (DMEM) (Gibco-BRL) containing 10% Fetal calf serum (FCS) (Sigma) and 1 mg/ml G418 (Gibco-BRL). Cells were seeded the night before (1.5×10^4 cells/well) in 96-well tissue-culture sterile plates. Compound and no compound controls were prepared in DMEM containing 4% FCS, 1:100 Penicillin/Streptomysin (Gibco-BRL), 1:100 L-glutamine and 5% DMSO in the dilution plate (0.5% DMSO final concentration in the assay). Compound/DMSO mixes were added to the cells and incubated for 4 days at 37° C. After 4 days, cells were first assessed for cytotoxicity using alamar Blue (Trek Diagnotstic Systems) for a CC50 reading. The toxicity of compound (CC50) was determined by adding 1/10th volume of alamar Blue to the media incubating the cells. After 4 h, the fluorescence signal from each well was read, with an excitation wavelength at 530 nm and an emission wavelength of 580 nm, using the Cytofluor Series 4000 (Perspective Biosystems). Plates were then rinsed thoroughly with Phosphate-Buffered Saline (PBS) (3 times 150 μl). The cells were lysed with 25 μl of a lysis assay reagent containing an HCV protease substrate (5× cell Luciferase cell culture lysis reagent (Promega #E153A) diluted to 1× with distilled water, NaCl added to 150 mM final, the FRET peptide substrate (as described for the enzyme assay above) diluted to 10 μM final from a 2 mM stock in 100% DMSO. The plate was then placed into the Cytofluor 4000 instrument which had been set to 340 nm excitation/490 nm emission, automatic mode for 21 cycles and the plate read in a kinetic mode. EC50 determinations were carried out as described for the IC50 determinations.

[2] = tested on: HCV replicon (Renilla luciferase reporter) in HUH-7 cells; test: HCV replicon luciferase reporter assay; assay type: cell-based; settings: Huh-7, read-out: EC50 in the replicon Luciferase assay
From the text: An HCV replicon whole cell system was established as described by Lohmann V, Korner F, Koch J, Herian U, Theilmann L, Bartenschlager R., Science 285(5424): 110-3 (1999). This system enabled us to evaluate the effects of our HCV Protease compounds on HCV RNA replication. Briefly, using the HCV strain 1b sequence described in the Lohmann paper (Assession number: AJ238799), an HCV cDNA was synthesized by Operon Technologies, Inc. (Alameda, Calif.), and the full-length replicon was then assembled in plasmid pGem9zf(+) (Promega, Madison, Wis.) using standard molecular biology techniques. The replicon consists of (i) the HCV 5′ UTR fused to the first 12 amino acids of the capsid protein, (ii) the neomycin phosphotransferase gene (neo), (iii) the IRES from encephalomyocarditis virus (EMCV), and (iv) HCV NS3 to NS5B genes and the HCV 3′ UTR. […]
As a secondary assay, EC50 determinations from the replicon FRET assay were confirmed in a replicon luciferase reporter assay. […] Following 4 days in a 37° C./5% CO2 incubator, cells were analyzed for Renilla Luciferase activity using the Promega Dual-Glo Luciferase Assay System. […] Plates were read on a Packard TopCount NXT using a luminescence program.
The percentage inhibition was calculated using the formula below: […]
The values were graphed and analyzed using XLfit to obtain the EC50 value.

Compound `C=C[C@@H]1C[C@]1(NC(=O)[C@@H]1C[C@@](O)(c2ccc(-c3ccccc3)cc2)CN1C(=O)[C@@H](NC(=O)OC(C)(C)C)C(C)(C)C)C(=O)NS(=O)(=O)C1CC1` [Compound 3] has an EC50 [1] of 11 nM and an EC50 [2] of 1.4 nM.
